In ChEMBL document CHEMBL1129201, “Synthesis and biological activity of 4-azido- and 4-trifluoracetamido-3-chloro-3-deamino-4-deoxydaunorubicin” (Bioorg Med Chem Lett, 1996):

Columns and labels:
[1] = Resistant Factor against MDR cell lines. Value expressed as ratio of IC50 on the resistant cell and on the corresponding sensitive cells.; assay type: functional
KB = assay: In vitro cytotoxicity using human epidermoid carcinoma (KB-A1) cells; assay type: functional, cell-based
KB 3-1 = assay: In vitro cytotoxicity using human epidermoid carcinoma (KB-3-1) cells; assay type: functional, cell-based
L1210 = assay: In vitro cytotoxicity using murine leukemia L1210 cells from american type culture collection.; assay type: functional, cell-based; settings: Mus musculus

COc1cccc2c1C(=O)c1c(O)c3c(c(O)c1C2=O)C[C@@](O)(C(C)=O)C[C@@H]3OC1CC(Cl)C(N=[N+]=[N-])C(C)O1 (stereo partly specified)
RF [1]: 1.7
IC50 (KB): 2760 nM
IC50 (KB 3-1): 1610 nM
IC50 (L1210): 1370 nM

COc1cccc2c1C(=O)c1c(O)c3c(c(O)c1C2=O)C[C@@](O)(C(C)=O)C[C@@H]3OC1CC(Cl)C(NC(=O)C(F)(F)F)C(C)O1 (stereo partly specified)
RF [1]: 6.9
IC50 (KB): 3790 nM
IC50 (KB 3-1): 550 nM
IC50 (L1210): 500 nM

COc1cccc2c1C(=O)c1c(O)c3c(c(O)c1C2=O)C[C@@](O)(C(C)=O)C[C@@H]3O[C@H]1C[C@H](N)[C@H](O)[C@H](C)O1 [DAUNORUBICIN]
RF [1]: 295.7
IC50 (KB): 2070 nM
IC50 (KB 3-1): 7 nM
IC50 (L1210): 33 nM

COc1cccc2c1C(=O)c1c(O)c3c(c(O)c1C2=O)C[C@@](O)(C(=O)CO)C[C@@H]3O[C@H]1C[C@H](N)[C@H](O)[C@H](C)O1 [DOXORUBICIN]
RF [1]: 333.8
IC50 (KB): 7010 nM
IC50 (KB 3-1): 21 nM
IC50 (L1210): 33 nM
